Columns and labels:
[1] = tested on: patients with essential tremor; experiment: T-CALM: TETRAS total score; assay type: in vivo, human
Description: The Total TETRAS score was defined as the sum of the TETRAS performance subscale total score and the TETRAS ADL subscale score. TETRAS TOTAL score combines both patient reported outcome and objective measurement of tremor amplitude in a single score. Analyses of the TETRAS-ADL was conducted using the same type of ANCOVA model as described for the TETRAS-PS, using two-sided tests at the alpha=0.05 level of significance (FIG. 3 and Table 3).

[2] = Healthy volunteer PK studies PN001/PN002 with IR capsules; assay type: in vivo, human
[3] = Average of the single-dose studies (dose 16)

## CC(C)c1ccc(CC(=O)N[C@H](C)c2ccc(OCC(F)(F)F)cn2)cc1 [CX-8998]
[1]; Day 15
  responders: improvement of at least 5 points by TETRAS Total score, %: (56.4%)
[1]; Day 15, N 39
  responders: improvement of at least 5 points by TETRAS Total score, number: 22
[1]; Day 15, N = 39
  TETRAS Total change from baseline 0 change: subjects, number (%): 1 (2.6%)
  TETRAS Total change from baseline >0 to 1 point improvement: subjects, number (%): 2 (5.1%)
  TETRAS Total change from baseline >0 to 1 point worsening: subjects, number (%): 2 (5.1%)
  TETRAS Total change from baseline >1 to 2.5 point improvement: subjects, number (%): 2 (5.1%)
  TETRAS Total change from baseline >1 to 2.5 point worsening: subjects, number (%): 1 (2.6%)
  TETRAS Total change from baseline >2.5 to 5 point improvement: subjects, number (%): 7 (17.9%)
  TETRAS Total change from baseline >2.5 to 5 point worsening: subjects, number (%): 4 (10.3%)
  TETRAS Total change from baseline >5 to 10 point improvement: subjects, number (%): 6 (15.4%)
  TETRAS Total change from baseline >5 to 10 point worsening: subjects, number (%): 0
  TETRAS Total change from baseline >10 to 20 point improvement: subjects, number (%): 12 (30.8%)
  TETRAS Total change from baseline >20 point improvement: subjects, number (%): 2 (5.1%)
  TETRAS Total change from baseline >point worsening: subjects, number (%): 0
[1]; Day 15 and Day 28
  total TETRAS score with TETRAS-PS rated by independent video raters, vs placebo: trended toward improvement for the CX-8998 group but was not statistically significant
[1]; Day 28
  responders: improvement of at least 5 points by TETRAS Total score, %: (56.8%)
[1]; Day 28, N 37
  responders: improvement of at least 5 points by TETRAS Total score, number: 21
[1]; Day 28, N = 37
  TETRAS Total change from baseline 0 change: subjects, number (%): 0
  TETRAS Total change from baseline >0 to 1 point improvement: subjects, number (%): 2 (5.4%)
  TETRAS Total change from baseline >0 to 1 point worsening: subjects, number (%): 4 (10.8%)
  TETRAS Total change from baseline >1 to 2.5 point improvement: subjects, number (%): 2 (5.4%)
  TETRAS Total change from baseline >1 to 2.5 point worsening: subjects, number (%): 2 (5.4%)
  TETRAS Total change from baseline >2.5 to 5 point improvement: subjects, number (%): 5 (13.5%)
  TETRAS Total change from baseline >2.5 to 5 point worsening: subjects, number (%): 1 (2.7%)
  TETRAS Total change from baseline >5 to 10 point improvement: subjects, number (%): 7 (18.9%)
  TETRAS Total change from baseline >5 to 10 point worsening: subjects, number (%): 0
  TETRAS Total change from baseline >10 point worsening: subjects, number (%): 0
  TETRAS Total change from baseline >10 to 20 point improvement: subjects, number (%): 8 (21.6%)
  TETRAS Total change from baseline >20 point improvement: subjects, number (%): 5 (13.5%)
[2]; [3]
  AUC0-24: 8.22 µM·h
  AUCinf: 13.2 µM·h
  Cmax: 1060 nM
[2]; PN001 Part 1, 16 mg, 1 dose
  AUC0-24: 8.52 µM·h
  AUCinf: 12.5 µM·h
[2]; PN001 Part 2, 18 mg, 1 dose
  AUC0-24: 9.93 µM·h
  AUCinf: 14.6 µM·h
[2]; PN001 Part 2, 18 mg, 1 dose, healthy volunteers
  Cmax: 1180 nM
[2]; PN002 Part 1, 18 mg, 1 dose
  AUC0-24: 9.44 µM·h
  AUCinf: 18.5 µM·h
[2]; PN002 Part 1, 18 mg, 1 dose, healthy volunteers
  Cmax: 1330 nM
[2]; PN002 Part 2, 12 mg, 1 dose
  AUC0-24: 4.99 µM·h
  AUCinf: 7.31 µM·h
[2]; PN002 Part 2, 12 mg, 1 dose, healthy volunteers
  Cmax: 798 nM
[2]; immediate release capsules, human subjects
  dose proportionality of plasma profiles: dose proportional in the 2-18 mg dose range
